Assay [1] relates to MDA-MB435 cells. Put plainly: Cell-based proliferation assay (cyquant), MDA-MB435. As to conditions: Homo sapiens, MDA-MB-435; 96 h treatment. How it is done:
Cell-Based Proliferation Assay for Determination of GI50 Values
Human colon cancer cell lines (Colo205 and HCT116), human breast cancer cell lines (MDA-MB435 and MDA-MB231), and human lung cancer cell line (A549) were obtained from ATCC. Colo205 cells were cultivated in RPMI 1640 containing 2 mM L-Glutamine, 5% FBS, 1.0 mM Na Pyruvate. A549 and MDA-MB231 were cultivated in RPMI 1640 containing 2 mM L-glutamine, 5% FBS. MDA-MB435 cells were cultivated in DMEM containing 2 mM L-Glutamine, 5% FBS. HCT116 cells were cultivated in IMEM containing 2 mM L-Glutamine, 5% FBS. A549 and Colo205 cells were seeded in 96-wells plate at 2000 and 5000 cells per well respectively. MDA-MB435, HCT116, MDA-MB231 cells were seeded in 96-wells plate at 6000 cells per well. The plates were incubated at 37° C., 5% CO2, for 24 h. Cells were treated with compounds at various concentration for 96 h. Cell growth was then monitored using cyquant cell proliferation assay (Invitrogen Pte Ltd). Dose response curves were plotted to determine GI50 values for the compounds using XL-fit.

Assay [2] relates to Colo205 cells. In words: Cell-based proliferation assay (cyquant), Colo205.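 Also: Colo205 human colon cancer cells exposed to compounds over a concentration range for 96 h, growth read by CyQUANT proliferation assay, GI50 taken from fitted dose-response curves.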 As to conditions: Homo sapiens, 96 h treatment.
Procedure: A549 and Colo205 cells were seeded in 96-wells plate at 2000 and 5000 cells per well respectively. […] The plates were incubated at 37° C., 5% CO2, for 24 h. Cells were treated with compounds at various concentration for 96 h. Cell growth was then monitored using cyquant cell proliferation assay (Invitrogen Pte Ltd). Dose response curves were plotted to determine GI50 values for the compounds using XL-fit.
In assay [3] the target is HDAC1 enzyme (recombinant GST-HDAC1) (Homo sapiens (Human), UniProt Q13547). Put plainly: In vitro HDAC assay (BIOMOL fluorescent-based), HDAC1 enzyme. The class given is biochemical.
Procedure: (§1) Expression of GST-HDAC1 or HTGST-HDAC8 was done by infecting SF9 cells (Invitrogen Pte Ltd) with pDEST20-HDAC1 or pFASTBAC-GST-HDAC8 baculovirus at MOI=1 for 48 h. Soluble cell lysate was incubated with pre-equilibrated Glutathione Sepharose 4B beads (Amersham) at 4° C. for 2 h. The beads were washed with PBS buffer for 3 times. The GST-HDAC1 protein or GST-HDAC8 protein was eluted by elution buffer containing 50 mM Tris, pH8.0, 150 mM NaCl, 1% Triton X-100 and 10 mM or 20 mM reduced Glutathione. The purified GST-HDAC1 protein or purified GST-HDAC8 protein was dialyzed with HDAC storage buffer containing 10 mM Tris, pH7.5, 100 mM NaCl and 3 mM MgCl2. 20% Glycerol was added to purified GST-HDAC1 protein or purified GST-HDAC8 before storage at −80° C.
For assay [4], the target named is HDAC8 enzyme (recombinant GST-HDAC8) (Homo sapiens (Human), UniProt Q9BY41). Put plainly: In vitro HDAC assay (BIOMOL fluorescent-based), HDAC8 enzyme. It is filed as biochemical.
Procedure: as §1
Assay [5] concerns the target HDAC3 (Homo sapiens (Human), UniProt O15379). Put plainly: In vitro HDAC assay, HDAC3. It is filed as biochemical. Conditions: Free base. As to the method: In Vitro HDAC Assay for Determination of IC50 Values
The assay has been carried out in 96 well format and the BIOMOL fluorescent-based HDAC activity assay has been applied. […] Flur de lys Developer was added and the reaction was incubated for 10 min. Briefly, deacetylation of the substrate sensitizes it to the developer, which then generates a fluorophore (symbol). The fluorophore is excited with 360 nm light and the emitted light (460 nm) is detected on a fluorometric plate reader (Tecan Ultra Microplate detection system, Tecan Group Ltd.).
The analytical software, Prism 3.0 has been used to generate IC50 from a series of data.

SMILES strings stand for the structures.

Chain of HDAC1 enzyme (recombinant GST-HDAC1) (Q13547 whole entry): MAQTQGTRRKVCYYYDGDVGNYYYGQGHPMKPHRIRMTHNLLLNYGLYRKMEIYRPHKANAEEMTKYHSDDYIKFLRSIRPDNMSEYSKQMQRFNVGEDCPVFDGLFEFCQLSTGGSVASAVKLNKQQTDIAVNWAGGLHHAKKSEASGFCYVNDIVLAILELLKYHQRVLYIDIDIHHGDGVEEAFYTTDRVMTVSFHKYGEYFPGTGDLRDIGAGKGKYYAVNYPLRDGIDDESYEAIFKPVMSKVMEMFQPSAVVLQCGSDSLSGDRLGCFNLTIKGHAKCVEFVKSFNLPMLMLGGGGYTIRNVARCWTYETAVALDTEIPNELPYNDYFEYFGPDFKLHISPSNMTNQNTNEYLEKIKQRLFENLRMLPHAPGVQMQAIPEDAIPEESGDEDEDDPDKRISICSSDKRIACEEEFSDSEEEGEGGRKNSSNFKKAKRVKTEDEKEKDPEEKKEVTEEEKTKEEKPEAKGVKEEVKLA
Chain of HDAC8 enzyme (recombinant GST-HDAC8) (Q9BY41 whole entry): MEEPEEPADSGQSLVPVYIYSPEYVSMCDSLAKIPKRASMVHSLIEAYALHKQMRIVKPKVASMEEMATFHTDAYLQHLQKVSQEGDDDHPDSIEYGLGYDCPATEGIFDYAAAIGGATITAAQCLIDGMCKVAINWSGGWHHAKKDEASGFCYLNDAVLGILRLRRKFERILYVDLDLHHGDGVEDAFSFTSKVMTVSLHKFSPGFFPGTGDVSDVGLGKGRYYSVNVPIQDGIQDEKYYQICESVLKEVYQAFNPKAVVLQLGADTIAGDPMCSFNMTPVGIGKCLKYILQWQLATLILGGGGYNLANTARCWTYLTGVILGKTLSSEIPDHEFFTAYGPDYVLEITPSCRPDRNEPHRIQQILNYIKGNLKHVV
Chain of HDAC3 (O15379 whole entry): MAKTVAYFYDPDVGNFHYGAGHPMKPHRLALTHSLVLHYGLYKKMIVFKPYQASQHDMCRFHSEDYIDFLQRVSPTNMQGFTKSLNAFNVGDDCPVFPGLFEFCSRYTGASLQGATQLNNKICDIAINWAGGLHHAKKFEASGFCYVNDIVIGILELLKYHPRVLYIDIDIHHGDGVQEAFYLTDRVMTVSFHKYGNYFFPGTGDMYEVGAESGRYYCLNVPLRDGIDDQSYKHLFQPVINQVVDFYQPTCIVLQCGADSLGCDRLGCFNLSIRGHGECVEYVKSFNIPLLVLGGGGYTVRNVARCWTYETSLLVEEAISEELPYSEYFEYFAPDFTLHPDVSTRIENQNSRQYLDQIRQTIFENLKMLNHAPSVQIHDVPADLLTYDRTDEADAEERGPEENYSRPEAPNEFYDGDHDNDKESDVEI

Broadly, the GI50 is the concentration at which growth is held to half of that of the control. With `CC(C)Cc1nc2cc(/C=C/C(=O)NO)ccc2n1CCc1ccccc1` [Compound 25, N-Hydroxy-3-(2-isobutyl-1-phenethyl-1H-benzimidazol-5-yl]-acrylamide], the GI50 in assay [1] was found to be 6.82 µM; in assay [2] (COLO 205), 8.1 µM.
The corresponding values for `O=C(/C=C/c1ccc2c(c1)nc(CCc1ccccc1)n2Cc1ccccn1)NO` [Compound 16, N-Hydroxy-3-(2-phenethyl-1-(pyridin-2-yl)methyl-1H-benzimidazol-5-yl)-acrylamide] are 0.98 µM and 0.94 µM.
As to `O=C(/C=C/c1ccc2[nH]c(CCc3ccc(F)cc3)nc2c1)NO` [Compound 85], in assay [2] (COLO 205), it took 1.65 µM to inhibit growth by half (GI50).
As to `O=C(/C=C/c1ccc2c(c1)nc(CCc1ccccc1)n2CC(O)CO)NO` (stereo not shown) [Compound 8], the GI50 is 58.4 µM in assay [1] and 41.4 µM in assay [2] (COLO 205).
In turn, `CCn1c(CCNC(=O)Cc2ccccc2)nc2cc(/C=C/C(=O)NO)ccc21` [Compound 70] gave a GI50 in assay [2] (COLO 205) of 2.9 µM.
What is called IC50 is the midpoint of a concentration-inhibition curve. For `Cn1c(CNC(=O)c2ccncc2)nc2cc(/C=C/C(=O)NO)ccc21` [Compound 55], the IC50 in assay [3] was determined as 0.137 µM. Also, the GI50 in assay [1] and in assay [2] (COLO 205) was greater than 100 µM throughout.
Consider `CCn1c(CCNS(=O)(=O)c2ccccc2)nc2cc(/C=C/C(=O)NO)ccc21` [Compound 71], for which growth in assay [2] (COLO 205) was halved (GI50) at 7.09 µM.
Turning to `CCCn1c(CCc2ccccc2)nc2cc(/C=C/C(=O)NO)ccc21` [Compound 36, N-Hydroxy-3-(2-phenethyl-1-propyl-1H-benzimidazol-5-yl}-acrylamide], the figures for the GI50 in assay [1] and in assay [2] (COLO 205) were 2.17 µM and 2.29 µM, respectively.
In the case of `O=C(O)CCn1c(CCc2ccccc2)nc2cc(/C=C/C(=O)NO)ccc21` [Compound 32, 3-[5-(2-Hydrocarbamoyl-vinyl)-2-phenethyl-benzimidazol-1-yl]-propionic acid], in assay [4], the IC50 was found to be 1.89 µM.
As to `O=C(/C=C/c1ccc2c(c1)nc(CCc1ccccc1)n2CCc1ccccn1)NO` [Compound 18], the GI50 in assay [1] turned out to be 6.16 µM; in assay [2] (COLO 205) it was 4.69 µM.
`O=C(/C=C/c1ccc2c(c1)nc(CCc1ccccc1)n2CCCN1CCOCC1)NO` [Compound 31, N-Hydroxy-3-[1-(3-morpholin-4-propyl]-2-phenethyl-1H-benzimidazol-5-yl}-acrylamide]: the GI50 came out at 4.06 µM in assay [1] and 1.87 µM in assay [2] (COLO 205).
`CN(C)CC(C)(C)Cn1c(CCCc2ccccc2)nc2cc(/C=C/C(=O)NO)ccc21` [Compound 83] returned a GI50 in assay [2] (COLO 205) of 0.25 µM.
For `CC(C)(C)Cn1c(CCc2ccccc2)nc2cc(/C=C/C(=O)NO)ccc21` [Compound 75], in assay [3], the 50% inhibitory concentration (IC50) stood at 0.29 µM. The molecule further displayed a GI50 in assay [2] (COLO 205) of 2.88 µM.
In turn, `COc1cc(-c2nc3cc(/C=C/C(=O)NO)ccc3n2CC(O)CO)ccc1OCc1ccccc1` (stereo not shown) [Compound 7, N-Hydroxy-3-[2-(4-benzyloxy-3-methoxy-phenyl)-1-(2,3-hydroxy-propyl)-1H-benzimidazole-5-yl]-acrylamide] returned a GI50 in assay [2] (COLO 205) greater than 100 µM.
The same measure, in the same setting: next, `CCn1c(CN(Cc2ccccc2)Cc2ccccc2)nc2cc(/C=C/C(=O)NO)ccc21` [Compound 68]: 0.73 µM.
In assay [5], `O=C(/C=C/c1ccc2c(c1)nc(CCc1ccccc1)n2CCN1CCCCC1)NO` [Compound 67, N-Hydroxy-3-[2-phenethyl-1-(piperidin-1-yl-ethyl)-1H-benzimidazol-5-yl]-acrylamide] yielded an IC50 of 0.056 µM.
In assay [2] (COLO 205, 96 h), `CN(C)CC(C)(C)Cn1c(SCc2ccccc2)nc2cc(/C=C/C(=O)NO)ccc21` [Compound 89, N-Hydroxy-3-[2-benzylsulfanyl-1-(3-dimethylamino-2-2,dimethyl-propyl)-1H-benzimidazol-5-yl]-acrylamide] showed a GI50 of 0.12 µM.
`CCn1c(CNCc2ccccc2)nc2cc(/C=C/C(=O)NO)ccc21` [Compound 64, N-Hydroxy-3-[2-(benzylamino-methyl)-ethyl-1H-benzimidazol-5-yl]-acrylamide]: the GI50 in assay [2] (COLO 205) stood at 1.7 µM.
Take `Cn1c(CCc2ccccc2)nc2ccc(/C=C/C(=O)NO)cc21` [Compound 59]: in assay [3], the IC50 was 0.382 µM. In addition, the GI50 in assay [1] turned out to be 3.69 µM; in assay [2] (COLO 205) it was 2.72 µM.
On to `O=C(/C=C/c1ccc2nc(CCc3ccccc3)n(Cc3ccccc3)c2c1)NO` [Compound 58], for which the IC50 in assay [3] came out at 1.14 µM.
Take `Cn1c(CNC(=O)Cc2ccccc2)nc2cc(/C=C/C(=O)NO)ccc21` [Compound 54]: the GI50 amounted to 5.92 µM in assay [1] and 4.47 µM in assay [2] (COLO 205).
Consider `CN(C)CC(C)(C)Cn1c(CCc2ccc(F)cc2)nc2cc(/C=C/C(=O)NO)ccc21` [Compound 84], for which, in assay [2] (COLO 205), the GI50 amounted to 0.17 µM.
The molecule `Cn1c(CNC(=O)Cc2ccc(F)cc2)nc2cc(/C=C/C(=O)NO)ccc21` [Compound 69] came in with a GI50 in assay [2] (COLO 205) of 7.16 µM.
Consider `COc1cc(Cn2c(CCc3ccccc3)nc3cc(CCC(=O)NO)ccc32)cc(OC)c1OC` [Compound 45], for which the figures for the GI50 in assay [1] and in assay [2] (COLO 205) were 1.9 µM and 2.41 µM, respectively.
For the molecule `COCCCn1c(CCc2ccccc2)nc2cc(/C=C/C(=O)NO)ccc21` [Compound 15], the results for the GI50 in assay [1] and in assay [2] (COLO 205) were 4.07 µM and 1.99 µM, respectively.
The matching figures for `O=C(/C=C/c1ccc2c(c1)nc(COCc1ccccc1)n2CCc1cccnc1)NO` [Compound 28]: 5.15 µM and 2.53 µM.
`CCn1c(CCNC(=O)COc2ccccc2)nc2cc(/C=C/C(=O)NO)ccc21` [Compound 73] yielded a concentration for 50% growth inhibition (GI50) in assay [2] (COLO 205) of 6.67 µM.
Regarding `O=C(/C=C/c1ccc2c(c1)nc(C1CCCCC1)n2CCCO)NO` [Compound 24, N-Hydroxy-[2-cyclohexyl-1-(3-hydroxy-propyl)-1H-benzimidazol-5-yl]-acrylamide], the GI50 turned out to be 35 µM in assay [1] and 30.7 µM in assay [2] (COLO 205).
For `O=C(/C=C/c1ccc2c(c1)nc(CCc1ccccc1)n2CCN1CCCC1)NO` [Compound 72, N-Hydroxy-3-[2-phenyethyl-1-(2-pyrrolidin-1-yl-ethyl)-1H-benzimidazol-5-yl]-acrylamide], the GI50 in assay [2] (COLO 205) was determined as 0.18 µM.
Molecule `O=C(/C=C/c1ccc2[nH]c(CCc3cccnc3)nc2c1)NO` [Compound 87] registered a GI50 in assay [2] (COLO 205) of 47.7 µM.
For `COc1ccc(CNCc2nc3cc(/C=C/C(=O)NO)ccc3n2C)cc1` [Compound 62], the GI50 in assay [1] was 19.8 µM; in assay [2] (COLO 205), 11.7 µM.
As for `CC(Cc1nc2cc(/C=C/C(=O)NO)ccc2n1CCc1cccnc1)c1ccccc1` (stereo not shown) [Compound 41], the GI50 in assay [1] worked out at 1.91 µM; in assay [2] (COLO 205) it was 1.65 µM.
With `CC(C)Cc1nc2cc(/C=C/C(=O)NO)ccc2n1CCc1ccccn1` [Compound 22], the GI50 amounted to 13.3 µM in assay [1] and 13.5 µM in assay [2] (COLO 205).
Consider `Cn1c(CN(Cc2ccccc2)Cc2ccccc2)nc2cc(/C=C/C(=O)NO)ccc21` [Compound 61], for which the GI50 in assay [1] stood at 3.05 µM; in assay [2] (COLO 205), 2.69 µM.
In the case of `O=C(/C=C/c1ccc2c(c1)nc(CCc1ccccc1)n2CCN1CCOCC1)NO` [Compound 44], the values for the IC50 in assay [4] and in assay [3] were 0.345 µM and 0.268 µM, respectively. Besides, the GI50 in assay [1] is 3.65 µM; in assay [2] (COLO 205), 2.82 µM.
With `O=C(/C=C/c1ccc2c(c1)nc(COCc1ccccc1)n2CCCO)NO` [Compound 19], the figures for the GI50 in assay [1] and in assay [2] (COLO 205) were 3.97 µM and 4.1 µM, respectively.
As for `O=C(/C=C/c1ccc2c(c1)nc(-c1ccccn1)n2CC(O)CO)NO` (stereo not shown) [Compound 9, N-Hydroxy-3-[1-(2,3-hydroxy-propyl)-2-(2-pyridyl)-1H-benzimidazol-5-yl]-acrylamide], the GI50 in assay [1] and in assay [2] (COLO 205) was greater than 100 µM throughout.
For `O=C(/C=C/c1ccc2c(c1)nc(CCc1ccccc1)n2CCCn1ccnc1)NO` [Compound 56, N-Hydroxy-3-[1-(3-imidazol-1-yl-propyl)-2-phenethyl-1H-benzimidazol-5-yl]-acrylamide], the GI50 in assay [1] and in assay [2] (COLO 205) was greater than 100 µM throughout.
Regarding `O=C(NO)c1ccc2c(c1)nc(CCc1ccccc1)n2CCCO` [Compound 40, 1-(3-Hydroxy-propyl)-2-phenethyl-1H-benzimidazol-5-carboxylic acid hydroxyamide], the GI50 turned out to be 31 µM in assay [1] and 25.6 µM in assay [2] (COLO 205).
With `Cc1nc2cc(/C=C/C(=O)NO)ccc2n1C` [Compound 53], in assay [3], the IC50 came out at 1.85 µM.
In assay [2] (COLO 205), `COc1ccc(-c2nc3cc(/C=C/C(=O)NO)ccc3n2CC(O)CO)cc1` (stereo not shown) [Compound 6, N-Hydroxy-3-[1-(2,3-hydroxy-propyl)-2-(4-methoxy-phenyl)-1H-benzimidazole-5-yl]-acrylamide] returned a GI50 greater than 100 µM.
In the case of `O=C(/C=C/c1ccc2c(c1)nc(-c1ccccn1)n2CCCO)NO` [Compound 13, N-Hydroxy-3-[1-(3-hydroxy-propyl)-2-(2-pyridyl)-1H-benzimidazol-5-yl]-acrylamide], the GI50 in assay [1] came out at 14.1 µM; in assay [2] (COLO 205), 12.3 µM.

The record behind these values is patent US10201527B2, “Benzimidazole derivatives: preparation and pharmaceutical applications” (MEI PHARMA, INC., priority 2003, dated 2019).
